Measured values from ChEMBL document CHEMBL1208713, “Coumarins incorporating hydroxy- and chloro-moieties selectively inhibit the transmembrane, tumor-associated carbonic anhydrase isoforms IX and XII over the cytosolic ones I and II” (Bioorg Med Chem Lett, 2010).

Experiments:
[1] = target: Carbonic anhydrase 1 (Homo sapiens) (UniProt P00915)
Description: Inhibition of human CA1 by CO2 hydration assay

[2] = target: Carbonic anhydrase 9 (Homo sapiens) (UniProt Q16790); assay: Inhibition of human CA9 by CO2 hydration assay
[3] = target: Carbonic anhydrase 12 (Homo sapiens) (UniProt O43570)
Chain of Carbonic anhydrase 12 (Homo sapiens) (O43570 whole entry): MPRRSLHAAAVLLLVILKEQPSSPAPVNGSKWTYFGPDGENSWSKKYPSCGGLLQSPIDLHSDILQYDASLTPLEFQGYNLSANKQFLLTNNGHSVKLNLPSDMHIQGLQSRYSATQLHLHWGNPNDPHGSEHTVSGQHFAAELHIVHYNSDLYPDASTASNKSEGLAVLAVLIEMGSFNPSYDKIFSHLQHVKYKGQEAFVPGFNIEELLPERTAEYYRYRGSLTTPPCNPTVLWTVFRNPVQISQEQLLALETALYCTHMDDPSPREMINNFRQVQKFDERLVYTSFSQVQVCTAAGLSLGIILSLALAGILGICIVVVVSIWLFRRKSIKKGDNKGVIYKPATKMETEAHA
Description: Inhibition of human CA12 by CO2 hydration assay

[4] = target: Carbonic anhydrase 2 (Homo sapiens) (UniProt P00918)
Description: Inhibition of human CA2 by CO2 hydration assay

Chain of Carbonic anhydrase 1 (Homo sapiens) (P00915 2-261 limits assumed): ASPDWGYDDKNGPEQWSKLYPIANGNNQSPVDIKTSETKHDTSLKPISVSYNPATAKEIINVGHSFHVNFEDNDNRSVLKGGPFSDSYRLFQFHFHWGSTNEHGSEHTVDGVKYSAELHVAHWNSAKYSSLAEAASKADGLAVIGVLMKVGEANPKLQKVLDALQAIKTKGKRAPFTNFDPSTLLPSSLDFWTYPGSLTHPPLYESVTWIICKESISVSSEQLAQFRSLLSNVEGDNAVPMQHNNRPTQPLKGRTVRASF

SMILES | Ki [1] [µM] | Ki [2] [µM] | Ki [3] [µM] | Ki [4] [µM]
O=c1cc(O)c2ccccc2o1 | 95 | 0.418 | 6.3 | > 100
O=c1cc(CCl)c2ccc(Cl)cc2o1 | 72.8 | 0.359 | 0.735 | > 100
O=c1cc(Cl)c2ccccc2o1 | 86.9 | 4.92 | 7.03 | > 100

Next, values leading:

Ki [1] [µM] | Ki [2] [µM] | Ki [3] [µM] | Ki [4] [µM] | SMILES
> 100 | 0.198 | 0.683 | > 100 | O=c1ccc2cc(O)ccc2o1
> 100 | 0.478 | 8.02 | > 100 | O=c1cc(CCl)c2ccc(O)cc2o1
79.4 | 0.508 | 9.6 | > 100 | O=c1oc2ccccc2cc1O
– | > 100 | > 100 | – | O=c1ccc2ccccc2o1
58.4 | 0.482 | – | – | O=c1ccc2ccc(O)cc2o1
